pEC50, pIC50: −log10 of the molar value. Read-outs that look alike come from different tables or passages of the source.
Tests used:
human M2 (hM2) = molecular target: T1, human M2 (hM2) (Homo sapiens, UniProt P08172); assay: Calcium mobilization assay, hM2/Gqi5-CHO cells, with EC20 acetylcholine; type: cell-based
T1 construct: expressed in transfected cells
T1 sequence (P08172 1-466): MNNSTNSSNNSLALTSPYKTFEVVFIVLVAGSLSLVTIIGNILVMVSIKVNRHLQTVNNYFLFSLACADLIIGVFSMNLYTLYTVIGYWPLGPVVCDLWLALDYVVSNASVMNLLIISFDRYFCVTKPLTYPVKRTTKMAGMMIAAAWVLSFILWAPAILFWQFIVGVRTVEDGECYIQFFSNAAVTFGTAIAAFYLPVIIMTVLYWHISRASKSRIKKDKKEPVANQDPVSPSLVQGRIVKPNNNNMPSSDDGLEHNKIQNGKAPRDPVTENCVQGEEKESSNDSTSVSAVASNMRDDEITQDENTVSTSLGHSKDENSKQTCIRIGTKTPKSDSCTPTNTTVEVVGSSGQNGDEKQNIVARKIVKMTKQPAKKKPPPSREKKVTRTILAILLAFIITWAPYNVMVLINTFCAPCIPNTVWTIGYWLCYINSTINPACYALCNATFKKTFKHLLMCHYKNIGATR
From the text: buffer remained in the cell plates. […] After establishment of a […]

[1] = Intrinsic clearance in rat liver microsomes (substrate depletion), predicted hepatic clearance; type: in vitro ADME; conditions: for CLint scaled at 1 µM: pH 7.4, rat liver microsomes; for CLhep, rat (predicted hepatic clearance): predicted from rat microsomal CLint
[2] = Intrinsic clearance in human liver microsomes (substrate depletion), predicted hepatic clearance; type: in vitro ADME; conditions: for CLint scaled at 1 µM: pH 7.4, human liver microsomes; for CLhep, human (predicted hepatic clearance): predicted from human microsomal CLint
[3] = Binding in plasma from rat, equilibrium dialysis; type: in vitro ADME; conditions: read-out: rat fu,plasma
[4] = Binding in plasma from human, equilibrium dialysis; type: in vitro ADME; conditions: for fraction unbound at 6 h, 5 µM: human, plasma, read-out: human fu,plasma
CYP 1A2 = molecular target: T2, CYP 1A2 (Homo sapiens, UniProt P05177); assay: CYP450 inhibition in pooled human liver microsomes, CYP-specific probe substrates; type: in vitro ADME; conditions: for pIC50: pooled HLM, NADPH, CYP-specific probe substrate
T2 sequence (P05177 1-516): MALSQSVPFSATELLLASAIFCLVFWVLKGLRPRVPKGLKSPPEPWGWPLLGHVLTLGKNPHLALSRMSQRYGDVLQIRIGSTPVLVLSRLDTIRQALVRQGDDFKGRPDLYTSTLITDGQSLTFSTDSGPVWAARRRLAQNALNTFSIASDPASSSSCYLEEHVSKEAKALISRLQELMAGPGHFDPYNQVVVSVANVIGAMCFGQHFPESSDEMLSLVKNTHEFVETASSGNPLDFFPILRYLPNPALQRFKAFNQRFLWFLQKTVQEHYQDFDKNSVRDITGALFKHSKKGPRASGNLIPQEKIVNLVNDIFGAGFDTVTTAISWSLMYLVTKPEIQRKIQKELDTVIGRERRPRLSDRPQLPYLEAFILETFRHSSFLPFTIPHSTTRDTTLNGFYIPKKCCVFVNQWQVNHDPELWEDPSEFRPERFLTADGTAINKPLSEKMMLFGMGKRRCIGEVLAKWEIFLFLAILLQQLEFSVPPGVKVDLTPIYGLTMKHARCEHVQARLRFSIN

CYP 2C9 = CYP 2C9 (Homo sapiens, UniProt P11712); assay: as above; type: in vitro ADME; conditions: pooled HLM, NADPH, CYP-specific probe substrate
CYP 2D6 = CYP 2D6 (Homo sapiens, UniProt P10635); assay: as above; type: in vitro ADME; conditions: pooled HLM, NADPH, CYP-specific probe substrate
CYP 3A4 = CYP 3A4 (Homo sapiens, UniProt P08684); assay: as above; type: in vitro ADME; conditions: pooled HLM, NADPH, CYP-specific probe substrate
human M4 (hM4) = molecular target: T3, human M4 (hM4) (Homo sapiens, UniProt P08173); assay: Calcium mobilization assay, hM4/Gqi5-CHO cells, with EC20 acetylcholine (PAM); conditions: for hM4 pEC50 / hM4 %ACh Max / pEC50: calcium mobilization; for hM4 %ACh Max: maximum response; for pEC50: EC20 fixed concentration of acetylcholine
T3 sequence (P08173 1-479): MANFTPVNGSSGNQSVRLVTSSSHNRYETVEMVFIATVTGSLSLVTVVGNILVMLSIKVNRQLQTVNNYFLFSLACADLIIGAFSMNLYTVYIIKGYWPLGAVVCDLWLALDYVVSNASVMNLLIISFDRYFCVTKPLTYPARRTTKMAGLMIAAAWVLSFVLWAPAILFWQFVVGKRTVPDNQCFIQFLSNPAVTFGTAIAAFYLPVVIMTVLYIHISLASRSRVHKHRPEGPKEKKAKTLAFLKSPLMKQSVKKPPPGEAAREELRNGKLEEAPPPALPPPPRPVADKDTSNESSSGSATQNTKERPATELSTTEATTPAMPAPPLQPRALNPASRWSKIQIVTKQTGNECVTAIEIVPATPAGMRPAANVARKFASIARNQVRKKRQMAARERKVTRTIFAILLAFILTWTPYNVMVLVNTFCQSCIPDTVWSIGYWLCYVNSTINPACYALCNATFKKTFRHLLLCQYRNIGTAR

[5] = Binding in brain homogenate from rat, equilibrium dialysis; type: in vitro ADME; conditions: rat brain homogenates; for fraction unbound at 6 h, 1 µM: rat, brain homogenate, read-out: rat fu,brain
[6] = hM4/Gqi5-CHO cells, EC20 acetylcholine
[7] = read-out: hM4 EC50, hM4/Gqi5-CHO cells

Sequence of CYP 3A4 (P08684 whole entry): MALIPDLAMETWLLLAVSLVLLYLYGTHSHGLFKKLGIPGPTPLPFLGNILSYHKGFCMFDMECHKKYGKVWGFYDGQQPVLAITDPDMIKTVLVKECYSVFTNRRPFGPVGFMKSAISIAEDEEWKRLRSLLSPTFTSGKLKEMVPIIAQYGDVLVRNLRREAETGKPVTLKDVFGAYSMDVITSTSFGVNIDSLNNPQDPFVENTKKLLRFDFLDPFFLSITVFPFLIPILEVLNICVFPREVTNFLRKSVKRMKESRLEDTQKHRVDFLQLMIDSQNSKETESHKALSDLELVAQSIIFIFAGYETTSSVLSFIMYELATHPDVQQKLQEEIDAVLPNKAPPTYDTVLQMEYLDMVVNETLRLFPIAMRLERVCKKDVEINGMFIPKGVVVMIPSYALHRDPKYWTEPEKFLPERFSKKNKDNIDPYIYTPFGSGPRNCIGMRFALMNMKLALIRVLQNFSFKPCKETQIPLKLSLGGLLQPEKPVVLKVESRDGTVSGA
Sequence of CYP 2C9 (P11712 whole entry): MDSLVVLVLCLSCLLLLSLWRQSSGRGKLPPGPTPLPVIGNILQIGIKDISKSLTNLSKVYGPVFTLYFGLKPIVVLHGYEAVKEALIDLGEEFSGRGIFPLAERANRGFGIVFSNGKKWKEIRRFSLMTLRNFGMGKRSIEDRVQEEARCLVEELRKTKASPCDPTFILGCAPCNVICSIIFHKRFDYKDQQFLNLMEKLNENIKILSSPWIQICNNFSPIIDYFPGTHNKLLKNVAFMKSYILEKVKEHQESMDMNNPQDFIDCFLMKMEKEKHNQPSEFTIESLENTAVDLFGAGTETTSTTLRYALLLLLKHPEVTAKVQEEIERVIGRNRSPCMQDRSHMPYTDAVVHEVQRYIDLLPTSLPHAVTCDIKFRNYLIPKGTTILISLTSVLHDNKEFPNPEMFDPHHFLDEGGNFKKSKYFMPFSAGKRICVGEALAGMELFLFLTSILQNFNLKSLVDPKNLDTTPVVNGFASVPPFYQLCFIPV
Sequence of CYP 2D6 (P10635 whole entry): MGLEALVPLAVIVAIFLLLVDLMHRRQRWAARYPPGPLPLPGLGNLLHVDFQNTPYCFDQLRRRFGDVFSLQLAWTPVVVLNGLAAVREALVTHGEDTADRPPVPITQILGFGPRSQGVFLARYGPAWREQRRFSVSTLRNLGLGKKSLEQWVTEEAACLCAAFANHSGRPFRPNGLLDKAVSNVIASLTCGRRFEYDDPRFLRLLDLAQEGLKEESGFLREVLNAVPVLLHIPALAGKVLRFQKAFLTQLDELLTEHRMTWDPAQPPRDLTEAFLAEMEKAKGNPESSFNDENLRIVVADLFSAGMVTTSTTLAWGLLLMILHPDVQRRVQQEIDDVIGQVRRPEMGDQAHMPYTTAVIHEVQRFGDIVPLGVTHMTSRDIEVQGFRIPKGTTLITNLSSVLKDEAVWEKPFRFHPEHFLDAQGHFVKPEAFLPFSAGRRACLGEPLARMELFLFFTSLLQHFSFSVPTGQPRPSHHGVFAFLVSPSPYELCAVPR

CLint scaled at 1 µM [1] [mL/min/kg]	CLhep, rat (predicted hepatic clearance) [1] [mL/min/kg]	CLint scaled at 1 µM [2] [mL/min/kg]	CLhep, human (predicted hepatic clearance) [2] [mL/min/kg]	fraction unbound at 6 h, 5 µM [3]	fraction unbound at 6 h, 5 µM [4]	pIC50 (CYP 1A2)	pIC50 (CYP 2C9)	pIC50 (CYP 2D6)	pIC50 (CYP 3A4)	hM4 pEC50 (human M4 (hM4); [6])	hM4 %ACh Max (human M4 (hM4); [6]) [%]	pEC50 (human M4 (hM4); [7])	fraction unbound at 6 h, 1 µM [5]	SMILES	also measured
316	57	79	17	≤ 0.01	≤ 0.01	5.82	5.04	6.48	< 4.52	7.09	65	7.09	–	Cc1c(Cl)cnc2sc3c(NC4CC(c5ccncc5)C4)ncnc3c12 (stereo not drawn) [Compound 15e]	hM2 EC50 (human M2 (hM2)): inactive
–	–	–	–	–	–	–	–	–	–	6.50	84	6.49	–	Cc1c(Cl)cnc2sc3c(NCc4ccncc4)ncnc3c12 [Compound 15d]	–
–	–	–	–	–	–	–	–	–	–	< 5.00	75	< 5.00	–	Cc1ncc(CNc2ncnc3c2sc2nc(C)c(Cl)c(C)c23)cn1.Cl [Compound 13b]	–
–	–	–	–	–	–	–	–	–	–	<5.00	71	< 5.00	–	Cc1nc2sc3c(N4CC5(COC5)C4)ncnc3c2c(C)c1Cl.Cl [Compound 13d]	EC50 (human M4 (hM4); read-out: hM4 EC50, as quoted in text in μM, hM4/Gqi5-CHO cells, EC20 acetylcholine): > 10 µM
–	–	–	–	–	–	–	–	–	–	5.93	62	5.92	–	Cc1nc2oc3c(NCc4ccc(C(C)(C)O)cc4)ncnc3c2c(C)c1Cl [Compound 14c]	–
–	–	–	–	–	–	–	–	–	–	5.22	45	5.22	–	Cc1c(Cl)cnc2sc3c(N4CCCC4)ncnc3c12 [Compound 15a]	–
–	–	–	–	–	–	–	–	–	–	6.27	41	–	–	Cc1nc2sc3c(NCc4ccc(OC(F)F)cc4)nncc3c2c(C)c1Cl [Compound 22e]	–
175	50	37	13	0.06	< 0.01	> 7.00	≤ 4.52	≤ 4.52	≤ 4.52	–	–	–	0.017	Cc1nc2oc3c(NC4CC4)ncnc3c2c(C)c1Cl.Cl [Compound 14o]	hM2 EC50 (human M2 (hM2)): inactive; human fu,plasma ([4]; fraction unbound): 0.007
–	–	–	–	–	–	–	–	–	–	6.39	51	6.40	–	Cc1c(Cl)cnc2sc3c(NC4(C)CC4)ncnc3c12 [Compound 15b]	–
–	–	–	–	–	–	–	–	–	–	5.88	69	5.89	–	COc1ccc(CNc2nncc3c2sc2nc(C)c(Cl)c(C)c23)cc1F [Compound 22a]	–
–	–	–	–	–	–	–	–	–	–	5.82	84	5.82	–	Cc1nc2sc3c(NC4CC(c5ccncc5)C4)ncnc3c2c(C)c1Cl.Cl (stereo not drawn) [Compound 13h]	–
423	60	78	17	≤ 0.01	–	> 7.00	< 4.80	< 4.52	4.80	–	–	–	0.001 to 0.005	Cc1nc2sc3c(NC4CC4)ncnc3c2c(C)c1Cl.Cl [Compound 13l]	pEC50 (human M2 (hM2)): 5.30; hM2 % ACh Max (human M2 (hM2)): 49%; rat fu,brain ([5]; fraction unbound): 0.001
–	–	–	–	–	–	–	–	–	–	6.29	73	6.29	–	Cc1nc2sc3c(N4CC5CC5C4)nncc3c2c(C)c1Cl.Cl (stereo not drawn) [Compound 22c]	–
–	–	–	–	–	–	–	–	–	–	<5.00	49	< 5.00	–	COc1ccc(CNc2ncnc3c2oc2nc(C)c(Cl)c(C)c23)cc1F.Cl [Compound 14a]	–
–	–	–	–	–	–	–	–	–	–	6.34	71	6.35	–	Cc1ncc(CNc2ncnc3c2sc2ncc(Cl)c(C)c23)cn1.Cl [Compound 15c]	–
334	58	147	18	0.031	0.008	6.19	< 4.52	< 4.52	< 4.52	–	–	–	0.003	Cc1c(Cl)cnc2sc3c(N4CC5(COC5)C4)ncnc3c12 [Compound 15h]	hM2 EC50 (human M2 (hM2)): inactive
–	–	–	–	–	–	–	–	–	–	6.72	67	6.72	–	COCCCNc1nncc2c1sc1nc(C)c(Cl)c(C)c12.Cl [Compound 22g]	–
642	63	224	19	0.171	0.02	6.44	< 4.52	< 4.52	< 4.52	–	–	–	0.002	Cc1c(Cl)cnc2sc3c(N4CC(C#N)C4)ncnc3c12 [Compound 15f]	hM2 EC50 (human M2 (hM2)): inactive; fold improvement of CYP 1A2 inhibition compared with ML253 (CYP 1A2; vs ML253): 3 fold

SMILES	CLint scaled at 1 µM [1] [mL/min/kg]	CLhep, rat (predicted hepatic clearance) [1] [mL/min/kg]	CLint scaled at 1 µM [2] [mL/min/kg]	CLhep, human (predicted hepatic clearance) [2] [mL/min/kg]	fraction unbound at 6 h, 5 µM [3]	fraction unbound at 6 h, 5 µM [4]	pIC50 (CYP 1A2)	pIC50 (CYP 2C9)	pIC50 (CYP 2D6)	pIC50 (CYP 3A4)	hM4 pEC50 (human M4 (hM4); [6])	hM4 %ACh Max (human M4 (hM4); [6]) [%]	pEC50 (human M4 (hM4); [7])	fraction unbound at 6 h, 1 µM [5]	also measured
Cc1nc2sc3c(NC4CCC4)nncc3c2c(C)c1Cl.Cl [Compound 22j]	1280	66	49	15	0.026	0.005	6.28	< 4.52	4.72	< 4.52	–	–	–	0.006	pEC50 (human M2 (hM2)): < 5.00; hM2 % ACh Max (human M2 (hM2)): 44%
Cc1nc2oc3c(N(C)C)ncnc3c2c(C)c1Cl.Cl [Compound 14e]	–	–	–	–	–	–	–	–	–	–	5.86	–	5.85	–	–
Cc1nc2sc3c(NC4CC(F)(F)C4)nncc3c2c(C)c1Cl.Cl [Compound 22k]	1670	67	185	19	0.057	0.01	6.01	< 4.52	4.60	< 4.52	–	–	–	0.008	pEC50 (human M2 (hM2)): 6.59; hM2 % ACh Max (human M2 (hM2)): 49%
Cc1nc2oc3c(NC4CC4(C)C)ncnc3c2c(C)c1Cl.Cl (stereo not drawn) [Compound 14p]	467	61	168	19	0.038	0.004	6.49	< 4.52	< 4.52	< 4.52	–	–	–	0.002	pEC50 (human M2 (hM2)): 5.64; hM2 % ACh Max (human M2 (hM2)): 39%
Cc1nc2sc3c(NCC4CCC4)nncc3c2c(C)c1Cl.Cl [Compound 22f]	–	–	–	–	–	–	–	–	–	–	6.40	–	–	–	fold loss (decrease) in hM4 potency (human M4 (hM4); relative to the comparator analogue (13g, 13k vs 13l; 22f vs 22j)): ~5 fold

Source: article PMC11318023, “Discovery of VU6008677: A Structurally Distinct Tricyclic M4 Positive Allosteric Modulator with Improved CYP450 Profile” (ACS Medicinal Chemistry Letters, 2024)
